ChEMBL document CHEMBL3098039, “Urea/oxalamide tethered β-lactam-7-chloroquinoline conjugates: synthesis and in vitro antimalarial evaluation” (Eur J Med Chem, 2014)

System: not listed separately
Assay: Cytotoxicity against human HeLa cells assessed as cell viability at 10 uM after 24 hrs by trypan blue assay relative to untreated control
Format: cell-based
Conditions: read-out: Activity

SMILES	viability at 24 h, 10 µM [%]
Cc1ccc(N2C(=O)[C@H](NC(=O)NCCCCCCNc3ccnc4cc(Cl)ccc34)[C@@H]2/C=C/c2ccccc2)cc1 (racemic)	90
O=C(NCCCCCCNc1ccnc2cc(Cl)ccc12)C(=O)N[C@@H]1C(=O)N(C2CCCCC2)[C@@H]1/C=C/c1ccccc1 (racemic)	90

System: Plasmodium falciparum
Assay: Antiplasmodial activity against chloroquine-resistant ring stage Plasmodium falciparum W2 assessed as parasitemia after 48 hrs by flow cytometry
Format: functional, organism-based
Conditions: W2, 48 h

SMILES	IC50 [nM]
O=C(NCCNc1ccnc2cc(Cl)ccc12)N[C@H]1C(=O)N(C2CCCCC2)[C@H]1/C=C/c1ccccc1 (mixture of isomers)	157
Cc1ccc(N2C(=O)[C@H](NC(=O)NCCNc3ccnc4cc(Cl)ccc34)[C@@H]2/C=C/c2ccccc2)cc1 (mixture of isomers)	53.1
Cc1ccc(N2C(=O)[C@H](NC(=O)NCCCCNc3ccnc4cc(Cl)ccc34)[C@@H]2/C=C/c2ccccc2)cc1 (mixture of isomers)	149
O=C(NCCCNc1ccnc2cc(Cl)ccc12)C(=O)N[C@@H]1C(=O)N(C2CCCCC2)[C@@H]1/C=C/c1ccccc1 (mixture of isomers)	121
O=C(NCCCCNc1ccnc2cc(Cl)ccc12)C(=O)N[C@@H]1C(=O)N(C2CCCCC2)[C@@H]1/C=C/c1ccccc1 (mixture of isomers)	68.6
CCOC(=O)N[C@@H]1C(=O)N(C2CCCCC2)[C@@H]1/C=C/c1ccccc1 (racemic)	> 1000
CCOC(=O)N[C@@H]1C(=O)N(c2ccc(C)cc2)[C@@H]1/C=C/c1ccccc1 (racemic)	> 1000
CCOC(=O)C(=O)N[C@@H]1C(=O)N(C2CCCCC2)[C@@H]1/C=C/c1ccccc1 (racemic)	> 1000
CCOC(=O)C(=O)N[C@@H]1C(=O)N(c2ccc(C)cc2)[C@@H]1/C=C/c1ccccc1 (racemic)	> 1000
O=C(NCCCCCCNc1ccnc2cc(Cl)ccc12)N[C@H]1C(=O)N(C2CCCCC2)[C@H]1/C=C/c1ccccc1 (racemic)	52.1
Cc1ccc(N2C(=O)[C@H](NC(=O)NCCCNc3ccnc4cc(Cl)ccc34)[C@@H]2/C=C/c2ccccc2)cc1 (racemic)	51
Cc1ccc(N2C(=O)[C@H](NC(=O)NCCCCCCNc3ccnc4cc(Cl)ccc34)[C@@H]2/C=C/c2ccccc2)cc1 (racemic)	42.4
O=C(NCCNc1ccnc2cc(Cl)ccc12)C(=O)N[C@@H]1C(=O)N(C2CCCCC2)[C@@H]1/C=C/c1ccccc1 (racemic)	61.3
O=C(NCCCCCCNc1ccnc2cc(Cl)ccc12)C(=O)N[C@@H]1C(=O)N(C2CCCCC2)[C@@H]1/C=C/c1ccccc1 (racemic)	35
Cc1ccc(N2C(=O)[C@@H](NC(=O)C(=O)NCCNc3ccnc4cc(Cl)ccc34)[C@H]2/C=C/c2ccccc2)cc1 (racemic)	44.8
Cc1ccc(N2C(=O)[C@@H](NC(=O)C(=O)NCCCNc3ccnc4cc(Cl)ccc34)[C@H]2/C=C/c2ccccc2)cc1 (racemic)	88.7
O=C(NCCCCNc1ccnc2cc(Cl)ccc12)C(=O)N[C@@H]1C(=O)N(c2ccc(Cl)cc2)[C@@H]1/C=C/c1ccccc1 (racemic)	82.2
O=C(NCCCCCCNc1ccnc2cc(Cl)ccc12)C(=O)N[C@@H]1C(=O)N(c2ccc(Cl)cc2)[C@@H]1/C=C/c1ccccc1 (racemic)	50.8
CCOC(=O)C(=O)N[C@@H]1C(=O)N(c2ccc(Cl)cc2)[C@@H]1/C=C/c1ccccc1 (relative stereo)	> 1000
O=C(NCCCNc1ccnc2cc(Cl)ccc12)N[C@H]1C(=O)N(C2CCCCC2)[C@H]1/C=C/c1ccccc1 (relative stereo)	73
O=C(NCCCCNc1ccnc2cc(Cl)ccc12)N[C@H]1C(=O)N(C2CCCCC2)[C@H]1/C=C/c1ccccc1 (relative stereo)	193
C[C@@H]1CC[C@H]2[C@@H](C)C(=O)O[C@@H]3O[C@@]4(C)CC[C@@H]1[C@]32OO4 [ARTEMISININ]	10.6
CCNCc1cc(Nc2ccnc3cc(Cl)ccc23)ccc1O [DESETHYL AMODIAQUINE]	401

System: not listed separately
Assay: Cytotoxicity against human HeLa cells assessed as cell viability at 1 uM after 24 hrs by trypan blue assay relative to untreated control
Format: cell-based
Conditions: read-out: Activity

SMILES	viability at 24 h, 1 µM [%]
COc1cccc2c1C(=O)c1c(O)c3c(c(O)c1C2=O)C[C@@](O)(C(=O)CO)C[C@@H]3O[C@H]1C[C@H](N)[C@H](O)[C@H](C)O1 [DOXORUBICIN]	62
